# Assays:
# [1] = organoleptic evaluation (odor and flavor) of the pyrimidine
# [2] = comparison of toxicity and potency with the chloroanalog; settings: versus other analogs, such as its chloroanalog
# [3] = enhancement of the sweetness of foods; settings: in foods; levels as low as
# Description: (§1) It can thus be used as an enhancer to reduce the quantity of artificial sweeteners required or to permit diminution of the quantity of natural sweeteners such as sugar.
# [4] = taste of aqueous solutions; settings: by itself at levels of 10 parts in 10^10, aqueous solutions
# Description: as §1
# [5] = acute oral toxicity (LD50, no-effect dose); settings: in vivo
# [6] = character of vanilla flavor; settings: 0.2 parts of 0.1% in propylene glycol; compared with the material omitted
# Description: A vanilla flavor is prepared by admixing the following ingredients: […]
# [7] = fragrance of perfume composition; settings: thienopyrimidine replaces 20 parts of caraway essence
# [8] = 0.1% alcohol solution on a blotter strip
structure (smiles),measurement,setting,value
"Cc1ncc2c(n1)CSC2 [2-methyl-5,7-dihydrothieno-[3,4d]-pyrimidine]",odor/flavor character in aqueous solution,[1]; 0.001 ppm in aqueous solution,"sweet roasted nut, popcorn character with a light astringency"
same,flavor in water,[1]; 0.003 ppm in water,"popcorn, roasted peanut flavor with an astringency like peanut skins"
same,odor,[1]; [8],"sharp, fresh roasted, sweet nut with a popcorn character"
same,persistence of odor,[1]; [8],the odor seems to disappear because of anosmia
same,flavor effect in chicken broth,[1]; 10^^-6 ppm in chicken broth,accentuates the root vegetable flavor notes
same,odor of the crystalline material,[1]; colorless crystalline material,"powerful odor of roasted fresh, sweet nut with a definite popcorn character"
same,potency relative to other analogs,[2],less potent
same,toxicity relative to other analogs,[2],less toxic
same,level at which the material begins to enhance the sweetness of foods,[3],10 parts in 10^12
same,aftertaste imparted to aqueous solutions,[4],"sweet, pleasant, and non-bitter aftertaste"
same,NOAEL,"[5]; po, test animals, read-out: maximum no effective dose or the lowest dosage level at which essentially no signs of toxicity in test animals is observed",34 mg/kg
same,LD50,"[5]; acute, oral",260 ± 40 mg/kg
same,quality of vanilla flavor,[6],"distinctly ""natural"" quality"
same,caraway note after replacement of caraway essence,[7],the natural caraway note of the original perfume is retained
